One data set deals with hERG potassium channel (Homo sapiens, UniProt Q12809). In words: hERG experiment (QPatch HTX whole-cell, CHO-hERG cells). It is filed as cell-based. The following applies: room temperature, tested at 0.24 to 30.00 μM, read-out: hERG inhibitory activity (IC50). Here is the method:
The cells stably expressing hERG potassium channel used in the experiment were derived from CHO-hERE of Aviva Biosciences, CHO-hERG was cultured under 5% CO2 at 37° C. hERGQPatch^HTX experiments were performed at room temperature. QPatch AssaySoftware 5.2 (Sophion Bioscience) software was used to establish whole-cell protocols, voltage stimulation protocols and compound detection protocols. First, the voltage stimulation was repeated for 30 times, this section was used as the baseline area for subsequent analysis, then 5 μL extracellular fluid was added and repeated three times. The effect concentrations of each compound were added one after the other, repeating three times by the addition of 5 μL volume. The cells were incubated at each test concentration for at least 5 mins. During the entire recording process, each indicator must meet the data analysis acceptance criteria, if the criterion is not met, the cell will not be counted in the analysis range, and the compound will be tested again, the above recording process is automatically operated by Qpatch analysis software. […] In each complete current record, based on the percentage of peak current in the negative control group, the percentage inhibition of the effect concentration of each compound can be calculated. […]
(The hERG channel carries a current that helps repolarise heart muscle cells.)

Data set [1] has as its system bleomycin-induced rat pulmonary fibrosis. In words: Pharmacodynamics in rats: bleomycin-induced unilateral (left lung) pulmonary fibrosis model. Particulars: for Percentage of pulmonary fibrosis score vs. model group (FIG. 2): Ashcraft score, boundary at 3 (3 or below vs. 4 or above). The class given is in vivo, SD rats. As to the method: Animals in each group started to be administered orally by gavage on the 8th day of modeling for a total of 14 days. All animals were euthanized the next day after the last administration, and the left lung was taken, and the same amount of formalin solution was infused into the lungs, the lung fibrosis score was analyzed by weighing and lung pathology.
Masson Trichrome staining was used for pathological evaluation of pulmonary fibrosis lesion area, pulmonary fibrosis pathology score, and fibrosis grade parameters for left lung pulmonary fibrosis lesions. […] (FIG. 2).

A further data set concerns the target ROCK protein kinase. In words: Evaluation of ROCK protein kinase inhibitory activity in vitro (33P-ATP filter-binding). The class given is biochemical. Particulars: 1 nM ROCK, 20 μM Long S6 Kinase substrate peptide, room temperature, two hours. As to the method: Evaluation of ROCK Protein Kinase Inhibitory Activity In Vitro
Experimental object: detecting the inhibitory IC50 value of ROCK protein kinase of the compounds.
Assay buffer solution: 20 mM Hepes (pH 7.5), 10 mM MgCl2, 1 mM EGTA, 0.02% Brij35, 0.02 mg/ml BSA, 0.1 mM Na3VO4, 2 mM DTT, 1% DMSO
ROCK protein kinase substrate Long S6 Kinase substrate peptide was added to the freshly prepared buffer solution at a concentration of 20 μM. Then 1 nM ROCK protein kinase was added and stirred evenly. […] After pre-incubating at room temperature for 20 minutes, ^33P-ATP (radiation intensity 10 μCi/μL) was added to initiate the reaction and the reaction was carried out at room temperature for two hours. […] The Filter-Binding method was used to detect radiation intensity.
The protein kinase inhibitory activity of the compound was expressed as the residual protein kinase activity of a relatively blank substrate (DMSO alone). IC50 values and curves were calculated using Prism software package (GraphPad Software, san Diego Calif., USA).

Data set [2] can be described thus: Evaluation of pharmacokinetics in rats. It is filed as in vivo. The following applies: rat, plasma, male SD rats, single administration, groups 2 mg/kg intravenous and 10 mg/kg oral gavage, route for this parameter not stated. As to the method:
Evaluation of Pharmacokinetics in Rats Male SD rats were used as test animals, after a single administration, the blood concentrations of the compounds were measured and the pharmacokinetic behavior was evaluated. Six healthy adult male SD rats (7-10 weeks of age, purchased from Shanghai Slack Experimental Animal Co., Ltd.) were randomly divided into two groups of three animals each, and one group was administered the test compound intravenously at 2 mg/kg, the other group was administered orally by gavage the test compound at 10 mg/kg. The vehicle in the intravenous administration group and the gastric administration group was both 10% DMSO+18% HP-β-CD+72% physiological saline. Blood samples were collected from the animals in the intravenous group at 0.0833, 0.25, 0.5, 1, 2, 4, 8, and 24 hours after the administration, and blood samples were collected from the animals in the gavage group at 0.25, 0.5, 1, 2, 4, 6, 8 and 24 hours after the administration. LCMS-MS method was used to determine the plasma drug concentration. WinNonlin™ version 6.3 (Pharsight Mountain View, Calif.) pharmacokinetic software was used to calculate the relevant pharmacokinetic parameters by non-compartment model logarithmic trapezoid method.

Where [3] appears, read: positive drugs: nintedanib 100 and 30 mg/kg/d-qd, pirfenidone 50 and 15 mg/kg/d-bid, oral gavage, 14 days, p<0.05.

The results in this text go back to patent US11155559B2, “Sulfonyl-substituted isoquinolines as inhibitors of RHO kinase and hERG potassium channel activity” (CHINA RESOURCES PHARMACEUTICAL HOLDINGS COMPANY LIMITED, priority 2017, dated 2021).

By IC50 is commonly meant the point on the concentration scale where inhibition reaches its midpoint.

Chain of hERG potassium channel (Q12809 whole entry): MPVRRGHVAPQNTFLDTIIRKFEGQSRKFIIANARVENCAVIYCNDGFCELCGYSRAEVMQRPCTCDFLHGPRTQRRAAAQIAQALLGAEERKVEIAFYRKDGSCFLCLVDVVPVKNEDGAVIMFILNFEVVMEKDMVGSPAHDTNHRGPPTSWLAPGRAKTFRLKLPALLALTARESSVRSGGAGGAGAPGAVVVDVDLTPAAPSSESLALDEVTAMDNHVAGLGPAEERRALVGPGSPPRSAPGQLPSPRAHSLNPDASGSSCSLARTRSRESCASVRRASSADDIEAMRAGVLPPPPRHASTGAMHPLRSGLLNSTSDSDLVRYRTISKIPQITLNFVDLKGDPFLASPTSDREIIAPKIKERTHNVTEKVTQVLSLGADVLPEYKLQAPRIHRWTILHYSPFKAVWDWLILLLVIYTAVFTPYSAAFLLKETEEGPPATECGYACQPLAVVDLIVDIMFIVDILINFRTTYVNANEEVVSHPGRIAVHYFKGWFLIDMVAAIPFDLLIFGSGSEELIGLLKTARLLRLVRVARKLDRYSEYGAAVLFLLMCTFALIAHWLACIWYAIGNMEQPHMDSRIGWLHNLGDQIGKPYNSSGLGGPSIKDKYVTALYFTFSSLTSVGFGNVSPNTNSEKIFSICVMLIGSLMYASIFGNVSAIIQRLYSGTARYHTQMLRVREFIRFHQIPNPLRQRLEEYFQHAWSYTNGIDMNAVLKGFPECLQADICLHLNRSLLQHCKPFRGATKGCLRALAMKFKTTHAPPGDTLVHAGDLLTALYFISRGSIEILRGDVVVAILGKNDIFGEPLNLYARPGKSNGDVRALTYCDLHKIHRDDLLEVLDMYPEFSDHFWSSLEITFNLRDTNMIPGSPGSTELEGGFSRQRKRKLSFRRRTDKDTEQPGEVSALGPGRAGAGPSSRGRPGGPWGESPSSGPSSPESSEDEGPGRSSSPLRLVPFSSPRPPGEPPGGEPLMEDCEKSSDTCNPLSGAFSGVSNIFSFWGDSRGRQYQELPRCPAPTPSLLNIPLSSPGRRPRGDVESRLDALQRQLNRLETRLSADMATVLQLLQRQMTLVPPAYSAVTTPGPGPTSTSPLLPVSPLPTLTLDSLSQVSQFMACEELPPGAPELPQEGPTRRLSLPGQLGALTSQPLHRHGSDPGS

For the compound `Cc1cncc2cccc(S(=O)(=O)N3C[C@@H]4CCN[C@@H]4C3)c12` [Embodiment 38 (WO2015/165341), reference compound], the IC50 on hERG potassium channel amounted to 4600 nM.
For the compound `O=S(=O)(c1cccc2cnccc12)N1CCCNCC1` [Fasudil, reference compound], the “Pulmonary fibrosis Ashcraft score vs. model group (FIG. 1)” value in data set [1] (oral, once a day at 25 mg/kg, 14 consecutive days, p<0.001) is “achieved the same effect as the positive drug in inhibiting pulmonary fibrosis”.
As to `O=S(=O)(c1cccc2cnccc12)N1CC2CCNC2C12CC2` (stereo not shown) [embodiment 1], on ROCK protein kinase, the IC50 was determined as 20 nM.
On the same count and under the same terms, for `O=S(=O)(c1cccc2cncc(Cl)c12)N1CC2CCNC2C12CC2` (stereo not shown) [embodiment 2] the value was 32 nM; for `O=S(=O)(c1cccc2cncc(F)c12)N1CC2CCNC2C12CC2` (stereo not shown) [embodiment 3], 93 nM; for `CC1C2NCCC2CN1S(=O)(=O)c1cccc2cncc(F)c12` (stereo not shown) [embodiment 6-1], 65 nM.
Same read-out and setting: for `CC1C2NCCC2CN1S(=O)(=O)c1cccc2cncc(F)c12` (stereo not shown) [embodiment 6-2] the value was 8 nM.
`CC1C2NCCC2CN1S(=O)(=O)c1cccc2cncc(F)c12` (stereo not shown) [embodiment 6]: the IC50 is 12 nM on ROCK protein kinase and greater than 30000 nM on hERG potassium channel. The clearance in data set [2] (read-out: Clearance rate (Cl)) worked out at 43.8 mL/min/kg. In addition, the half-life in data set [2] (read-out: Half-life period (T1/2) (converted)) is 1.12 h. For the same compound, the “Percentage of pulmonary fibrosis score vs. model group (FIG. 2)” value in data set [1] (oral gavage, 14 days) is given as “significant statistical difference compared with the model group”. Further, the “Lowest dose effective in inhibiting pulmonary fibrosis” value in data set [1] (administered continuously for two weeks) is listed as no more than 1 mg/kg BID. In addition, the “Pulmonary fibrosis-improving effect compared with reference drugs” value in data set [1] (compared with nintedanib, pirfenidone and fasudil) was “comparable to that of nintedanib, pirfenidone, and fasudil at lower doses”. Moreover, the “Pulmonary fibrosis Ashcraft score vs. model group (FIG. 1)” value in data set [1] (oral, once a day at 3 mg/kg, 14 days, consistent with the same dose twice daily) was “significant effect on inhibiting pulmonary fibrosis”; in data set [1] (oral, twice a day at three doses (1, 3, 10 mg/kg/d-bid), 14 consecutive days, p<0.001), “significant inhibition of pulmonary fibrosis”.
`CC1C2NCCC2CN1S(=O)(=O)c1cccc2cnccc12` (stereo not shown) [embodiment 7-1] gave an IC50 at ROCK protein kinase of 63 nM.
Still for that read-out and setting: for `CC1C2NCCC2CN1S(=O)(=O)c1cccc2cnccc12` (stereo not shown) [embodiment 7-2] the value was 15 nM; for `CC1C2NCCC2CN1S(=O)(=O)c1cccc2cnccc12` (stereo not shown) [embodiment 7], 28 nM.
Still for that read-out and setting: for `Cc1cncc2cccc(S(=O)(=O)N3CC4CCNC4C3C)c12` (stereo not shown) [embodiment 8] the value was 18 nM; for `CC1C2NCCC2CN1S(=O)(=O)c1cccc2c(O)ncc(F)c12` (stereo not shown) [embodiment 10], 783 nM.
Take `COC(=O)c1ccc2c(c1)NC(=O)/C2=C(\Nc1ccc(N(C)C(=O)CN2CCN(C)CC2)cc1)c1ccccc1` [nintedanib, reference compound]: the “Percentage of pulmonary fibrosis score vs. model group (FIG. 2)” value in data set [1] (oral gavage, 14 days) is “significant differences compared with the model group”. Further, in data set [1] (setting [3]), the “Pulmonary fibrosis Ashcraft score vs. model group (FIG. 1)” value was “significantly improved the degree of pulmonary fibrosis”.
In the same order, the values of `Cc1ccc(=O)n(-c2ccccc2)c1` [pirfenidone, reference compound] are “significant differences compared with the model group” and “significantly improved the degree of pulmonary fibrosis”.
